Measured values taken from PMC7473840, “Identification of a molecular locus for normalizing dysregulated GABA release from interneurons in the Fragile X brain” (Molecular Psychiatry, 2018).
“Also recorded” adds a separate entry of the source.

Columns and labels:
[1] = ref Invitrogen; read-out: Kd (Ca2+ indicator); cited from earlier work
[2] = test system: WT mice; assay: Three-chambered sociability test, WT; format: in vivo, mouse; conditions: 200 mg/kg
Source text: (§1) The three-chambered sociability test was composed of three sessions: habituation (trail 1), sociability (trial 2), and social novelty (trial 3), which evaluated sociable behavior and recognition of social novelty. For habituation, 7–9-week-old testing male mouse was placed in the middle chamber and allowed to freely explore all three chambers. In the sociability session, a stranger mouse (the same strain and gender but never encountered before) was put underneath a grid cup and placed in one of the two side-chambers, while another identical empty cup was placed on the other side. In the social novelty session, another stranger mouse was put inside the previously empty cup. Each session lasted 9 min. Physical contacts around the cups with the nose, head, and forelimbs, were defined as sniffing behavior and used as an index for sociable behavior [47]. A camera, connected to a computer, was used to track mice activity using the ANY-maze software (ANY-maze, Stoelting Co., IL, USA). Testing was conducted 30 min after saline or DHA (200 mg/kg, Sigma) injection (intraperitoneal, i.p.) to minimize distress from drug administration and ensure normal physical activity that could be affected by DHA for a short period.

[3] = test system: adult Fmr1-KO mice; assay: Acoustic startle reflex (ASR); format: in vivo, mouse; conditions: chow enriched with 0.5% w/w DHA for 1 week; n = 11 versus n = 10 control; double-blind
Experimental: As previously described, acoustic startle response was measured from 7–9-week-old mice, which were submitted to no pulse or a pulse stimulation (120 dB, 40 ms) alone or in combination of a prepulse (either 72, 78, or 82 dB, 20 ms). Maximal startle response was recorded and compared between groups for all types of trials. The sound attenuated chambers and analysis software were obtained from San Diego Instruments (San Diego, USA). One week prior to testing, mice were fed with normal chow or calorically equivalent chow enriched with 0.5% DHA (Sigma) prepared by Research Diets (New Brunswick, USA). Diets were prepared with identical dyes to be indistinguishable by eye. Mice were tested for acoustic startle response only once between 4 p.m. and 7 p.m.

[4] = test system: Kv1.2; assay: K+ current by voltage ramp, CHO cells expressing Kv1.2-WT; format: cell-based; conditions: 1 µM, n = 7
Source text: Fig. 3 Direct interaction between FMRP and Kv1.2 in a phosphorylation-specific manner. a Illustration of an alpha subunit of Kv1.2 channel with extensive details of intracellular C-terminus. b K^+ current generated by a voltage ramp (−90 to 100 mV, top) from CHO cells expressing WT (Kv1.2-WT, middle) or truncated Kv1.2 (Kv1.2-Δ429-500, bottom) before and after infusion of N-terminus FMRP protein (n-FMRP, H00002332-P01, Novus Biologicals, 1:100 dilution). c The changes in amplitude of K^+ current by n-FMRP is summarized for Kv1.2-WT (n = 8) and Kv1.2-Δ429-500 (n = 8) constructs. d Co-IP of Kv1.2 and FMRP in the absence or presence of three peptides targeting the sequence (436–457) of C-terminus of Kv1.2 as highlighted in a phosphorylated (PhosKv436-457), non-phosphorylated (Kv436-457), and phosphorylated scrambled peptide. e Summary of effect of the three peptides. […] The changes in the amplitude and frequency of sIPSCs are summarized in the right panels for PhosKv436-457 (n = 6, f), non-phosphorylated Kv436-457 (n = 6, g), and scrambled (n = 5, h) peptides.
Fig. 5 DHA rescue and graphical overview of the function of FMRP at the BC–PN synapses. a, b Currents generated by a voltage ramp (−90 to 100 mV) from CHO cells transfected with recombinant Kv1.2 in the absence (black) or presence (red) of DHA (1 µM). These currents are fit with a Boltzmann function: f(V) = Imax/(1+e^(V1/2−V)/Vc)+C, in which “Imax” denotes the theoretical value of the maximal amplitude of Kv1.2 currents; “V1/2” indicates the depolarization voltage needed to produce the half-maximal amplitude of the currents; “Vc” is the slope factor describing the steepness of the Boltzmann curve. The parameters for the two groups (n = 7) are summarized in (b). c, d sIPSCs recorded from PNs in Fmr1-KO slices with (bottom) or without (top) DHA (10 µM). Changes in the amplitude and frequency of sIPSC (n = 8) are quantified in (d). e, f APs from PNs before (top) and after (bottom) DHA application (10 µM). […] In WT BCs, there are two populations of Kv1.2 channels being in either non-phosphorylated or phosphorylated state (with C-termini colored in black and turquoise respectively; +/−P to symbolize phosphate modification). The N-terminus of FMRP dimers directly interact with C-terminus of Kv1.2 only in a phosphorylated state. This interaction enhances the gating (Pathway 1), membrane targeting (Pathway 2), and/or axonal trafficking (Pathway 3) of Kv1.2 in the nerve terminal to control its excitability and Ca^2+ dynamics (blue) critical for tuning inhibitory neurotransmission and ensuring the final output from principal neurons (i.e., PNs). […]

[5] = test system: Fmr1-KO mice; assay: Three-chambered sociability test, Fmr1-KO; format: in vivo, mouse; conditions: 200 mg/kg i.p., 30 min before test; 7–9-week-old male; n = 7
Source text: as §1

[6] = ref [45]; cited from earlier work
[7] = test system: BC–PN synapse, Fmr1-KO; assay: sIPSCs from PNs, Fmr1-KO synapses; format: cell-based, mouse; conditions: 10 µM applied to Fmr1-KO cerebellar slices; n = 8
[8] = test system: PNs, Fmr1-KO cerebellar slices; assay: Spontaneous firing of PNs, cell-attached, Fmr1-KO; format: cell-based, mouse; conditions: 10 µM, Fmr1-KO, cell-attached; n = 7

Compound	Kd [1]	distance travelled during the trials ([2]; WT, repeated one-way ANOVA, p>0.05)	social behavior of WT mice ([2]; male C57BL/6J, n = 8, repeated two-way ANOVA)	sniffing time, stranger versus empty cup ([2]; sociability session, WT, n = 8)	sniffing time, novel stranger versus familiar mouse ([2]; social novelty session, WT, n = 8)	acoustic startle reflex from 120-dB sound stimulation [3]	half-activation voltage (V1/2) ([4]; Boltzmann fit)	maximal amplitude of Kv1.2 currents ([4]; Boltzmann fit)	slope factor (Vc) ([4]; Boltzmann fit)	shift in Kv1.2 currents evoked by voltage ramp ([4]; ramp −90 to 100 mV)	social novelty recognition [5]	blood–brain barrier crossing [6]	amplitude and frequency of sIPSCs [7]	spike (AP) frequency of PNs [8]
Fluo-4	0.345 µM													
CC/C=C\C/C=C\C/C=C\C/C=C\C/C=C\C/C=C\CCC(=O)O [DHA, docosahexaenoic acid]		No significant differences	did not affect social performance of WT mice; also recorded: did not alter the social behaviors of WT animals	spent more time sniffing the stranger than the empty cup	spent more time sniffing the novel stranger than the familiar one	significantly attenuated ASR	decreased the half-activation voltage (V1/2)	the maximal amplitude was unaffected	increased the slope factor (Vc)	a significant leftward shift in the Kv1.2 currents	improved the deficient social novelty recognition	can cross blood–brain barrier	reduced amplitude and frequency of sIPSCs	increases the frequency of APs in the Fmr1-KO synapses; also recorded: enhanced the spike frequency of PNs, restoring the firing rate of Fmr1-KOs to the same level as the WTs
